Laboratory results reported in patent publication US20240216249A1, “COLLAGEN ACTIVATOR, AND PREPARATION METHOD AND APPLICATION THEREOF” (Hangzhou NUPTEC Rising Bioproducts Incorporation, Ltd., priority 2022, published 2024).

Key:
[1] = test system: blood vessels of embryonated eggs; experiment: safety test on blood vessels of embryonated eggs; settings: positive comparative group, 0.05 M SDS, 5 eggs
[2] = test system: collagen III; experiment: cell experiments, expression of collagen III; type: cell-based
[3] = test system: collagen XVII; experiment: cell experiments, expression of collagen XVII; type: cell-based
[4] = test system: collagen I; experiment: cell experiments, expression of collagen I; type: cell-based

SMILES | irritation judgement [1] | bleeding of blood vessels of embryonated eggs ([1]; 30 min) | content having a promoting effect on the expression of collagen III [2] | optimal content (highest expression) for collagen III [2] [%] | content having a promoting effect on the expression of collagen XVII [3] | optimal content (highest expression) for collagen XVII [3] [%] | content having a promoting effect on the expression of collagen I [4] | optimal content (highest expression) for collagen I [4] [%]
CCCCCCCCCCCCOS(=O)(=O)[O-].[Na+] [SDS, sodium dodecyl sulfate] | non-irritants | appear the bleeding phenomenon | – | – | – | – | – | –
CC1(C)[C@@H](O[C@H]2O[C@H](C(=O)[O-])[C@@H](O)[C@H](O)[C@H]2O[C@@H]2O[C@H](C(=O)[O-])[C@@H](O)[C@H](O)[C@H]2O)CC[C@]2(C)[C@H]3C(=O)C=C4[C@@H]5C[C@@](C)(C(=O)O)CC[C@]5(C)CC[C@@]4(C)[C@]3(C)CC[C@@H]12.[K+].[K+] [dipotassium glycyrrhizinate] | – | – | 0.001%-0.25 | 0.1 | 0.001%-0.01 | 0.01 | 0.001%-0.1 | 0.01
